Data: patent US6620842B2, “Chalcones” (Indena SpA, priority 1999, dated 2003)

How the values were obtained:
[1] = system: drug-resistant cancer cells
Method: (§1) The treatment consisted of concurrent exposure of MDA-435/LCC-MDR cells to paclitaxel in the presence or absence of the compounds reversing agent (1 μM) for 72 h in vitro. Assessment of cytotoxicity, i.e. cell growth inhibition, was determined according to the methods of Skehan, et al. as discussed in J. Nat.
(§2) Briefly, cells were plated between 400 and 1200 cells/well in 96 well plates and incubated at 37° C. for 15-18 h prior to drug addiction to allow attachment of cells. Compounds were solubilized in 100% DMSO and further diluted in RPMI-1640 containing 10 mM HEPES. After a 72 h incubation, 100 μl of ice-cold 50% TCA was added to each well and incubated for 1 h at 40° C. Plates were then washed 5 times with tap water to remove TCA, low-molecular weight metabolites and serum proteins. Suforhodamine B (SRB) (0.4%, 50 μl) was added to each well. Following a five minute incubation at room temperature, plates were rinsed 5 times with 0.1% acetic acid and air dried. Bound dye was solubilized with 10 mM Tris Base (pH 10.5) for 5 mm on a gyratory shaker. Optical density was measured at 570 nm.

[2] = system: drug-resistant breast cancer cells MDA-435/LCC6-MDR; experiment: Cytostatic activity of paclitaxel alone or in combination with the compounds (SRB cell growth inhibition); type: cell-based; conditions: IC50 of paclitaxel alone or in presence of compound (reversing agent, 1 μM), MDA-435/LCC6-MDR cells, 72 h
Method: The compounds were then evaluated in combination with paclitaxel for their cytostatic activity against the drug-resistant breast cancer cells MDA-435/LCC6-MDR.
In the experiments, the compounds were used in combination with paclitaxel, the paclitaxel being at a concentration of 0.3 μM.
Cancer Inst, 82, 1107, 1990.

[3] = Cytotoxicity of the compounds alone against drug-resistant cancer cells; conditions: human, MDA-435/LCC-MDR cells (drug-resistant cancer cells)
Method: as §1, §2

1-[3-Methyl-7-(Prop-2-ynyloxy)flavon-8-yl]-Phenyl-Propen-1-one [VIB 167]
IC50 [1]: > 1000 nM

CC(=O)O[C@H]1C(=O)[C@@]2(C)[C@H]([C@H](OC(=O)c3ccccc3)[C@]3(O)C[C@H](OC(=O)[C@H](O)[C@@H](NC(=O)c4ccccc4)c4ccccc4)C(C)=C1C3(C)C)[C@]1(OC(C)=O)CO[C@@H]1C[C@@H]2O [Paclitaxel, paclitaxel]
IC50 [2]: 426 nM

COc1cc(C=CC(=O)c2c(OCC=C(C)C)ccc3c(=O)c(C)c(-c4ccccc4)oc23)cc(OC)c1OC [VIB 173, 1-[3-Methyl-7-(3-Methylbut-2-Enyloxy)Flavon-8-yl]-3-(3,4,5-Tri-Methoxy)Phenyl-Propen-1-one]
IC50 at 72 h [3]: > 1000 nM

COc1cc(C=CC(=O)c2c(OCC=C(C)C)ccc3c(=O)c4ccccc4oc23)cc(OC)c1OC [VIB 178, 1-[3-(3-Methylbut-2-Enyloxy)Xanthen-9-one-4-yl]-3-(3,4,5-Tri-Methoxyphenyl)-Propen-1-one]
IC50 at 72 h [3]: > 1000 nM
